# Like-named read-outs stand apart in the source and are kept apart here.
# Key:
# experimental granuloma = assay: Cotton-wool granuloma (chronic proliferative inflammation) in rats; assay type: in vivo
# Description: We investigated the ability of compound (2) to reduce the formation of granulation tissue in the inflammatory focus which develops at the site at which a non-sterile cotton-wool roll weighing 40 mg is implanted subcutaneously (Swingle and Shideman, 1972). Compound (2) was administered orally to male rats weighing 130-150 g at a dose of 100 mg/kg for 6 days before the cotton-wool roll was implanted, and then for 6 days at the same dose while the granuloma developed. Anti-inflammatory agents, such as ibuprofen and butadione, were used for comparison, using the same procedure. There were 10 rats in each group.
# After 12 days the experiment was terminated, and the granulomas were excised, weighed, and the wet weight of the granulation tissue was measured. The dry mass of the granuloma was measured after drying for 24 hours at 70° C., and the exudative and proliferative stages of the granulomas were calculated. Statistical analysis was performed using the Student's parametric test.
# [1] = oral dose used for the comparative medication; cited from earlier work
# [2] = test system: carrageenin-induced inflammation; assay: Carrageenin-induced inflammation in intact and adrenalectomized rats; assay type: in vivo
# Description: An acute inflammatory oedema was induced in intact and adrenalectomized male rats weighing 180-200 g by sub-plantar injection of 0.1 ml of 1% carrageenin solution into the left paw (Winter et al., 1962). The same volume of saline solution was injected into the contralateral paw. […] There were 10 rats in each group.
# The degree of carrageenin-induced inflammation of the ankle joints was assessed at 3 hours after the induction of the inflammation, on the basis of the change in weight of the experimental and control paws (reaction index).
# [3] = test system: acute Con A-induced inflammation; assay: Acute Con A-induced inflammation (paw oedema) in mice; assay type: in vivo; settings: Table 3, male CBA mice
# Description: Saline solution was similarly administered to the control animals. There were 10 mice in each group. After one hour, con A at a dose of 100 mkg/20 g of body weight was administered by sub-plantar injection into the plantar aponeurosis of the left paws of mice of both the experimental and control groups. The same amount of saline splution was injected into the contralateral paws. After one hour, the mice were killed and the experimental and control paws were weighed to assess the reaction index of the inflammation in the ankle-joint (Liubimov et al, 1999).
# The anti-inflammatory effect of Compound 2 and Compound 7 was compared in male mice weighing 18-22 g, using the model described in Example 9. The ED50, i.e. the dose reducing paw ooedema by 50% one hour after injection of Concanavalin A, was calculated.
# [4] = test system: lesions of the gastric mucosa; assay: Gastric lesions induced by immobilization and hypothermia; assay type: in vivo, rats; parameters: % reduction of degree of ulceration / % reduction of ulcerated area: concentration or dose not given beside the values; settings: Protective effect, 30 minutes before the test
# Description: (§1) The models used gastric ulcers induced by
# b) Immobilization and hypothermia (induced by water cooling);
# (§2) The compounds were administered intraperitoneally at a dose of 20 mg/kg; in the cryogenic ulcer model compound 2 was administered either intraperitoneally (10 mg/kg) or orally (20 mg/kg twice daily, ie. a total of 40 mg/kg/day) and was compared to orally-administered gastrocepin (1 mg/kg twice daily, ie. a total of 2 mg/kg/day).
# [5] = test system: cryogenic ulcer of the gastric mucosa; assay: Cryogenic gastric ulcer in rats; assay type: in vivo; settings: healing effect over the course of 14 days; twice daily, oral
# Description: as §1
# c) Ulcer created by local wounding with a cryogenic probe using a method similar to that described above for mouth ulcers.
# as §2
# [6] = test system: lesions of the gastric mucosa; assay: Gastric lesions induced by electrostimulation of immobilised rats; assay type: in vivo
# Description: as §1
# a) Electrostimulation of immobilised rats for 3 hours;
# as §2
# [7] = test system: gastric secretory function; assay: Gastric secretory function, chronic or acute tests; assay type: in vivo; settings: dogs or rats
# [8] = test system: regeneration of liver after partial hepatectomy; assay: Liver regeneration after partial hepatectomy in rats; assay type: in vivo; settings: for Catalase E activity / DNA content (in mg/g of tissue) / Protein content / RNA content (mg/g of tissue) / SOD activity: 0.2 mM/kg; for Level of recovery: 0.2 mM/kg intraperitoneally, 7 days, hepatectomy alone = 100
# Description: Partial hepatectomy was performed using the conventional method (Higgins and Anderson, 1931) by removing the left lateral and central lobes of the liver from 80 male white rats, weighing 180-200 g.
# Compound 2, Compound 4, Compound 5 or Compound 6 was administered to the experimental groups intraperitoneally in equimolar doses of 0.1 mM/kg and 0.2 mM/kg. These optimal doses were determined in preliminary experiments. The control group received intraperitoneal injections of saline solution. The compounds were administered on the day after the operation and then one injection was given daily over the course of 7 days, since maximum growth of the liver mass in rats is observed in the first 7 days after partial hepatectomy (Solopaev, 1980).
# The effectiveness of the compounds was compared to that of a combination of non-steroid anabolic regeneration stimulators which are used in the treatment of liver pathology, namely Riboxin and potassium orotate at a dose of 0.2 mM/kg each (Rychnev and Frolov, 1984).
# For quantitative evaluation of the regeneration process in the liver the coefficient of regeneration completion as determined by the formula below was used: [formula] where
# Stimulation of the regeneration of tissue after hepatectomy in response to different medicinal preparations is associated with an increase in the synthesis of nucleic acids, as indicated by the increase in the content of RNA and DNA in the regenerated tissue. Quantitative analysis of DNA and RNA was performed by centrifugation. […] The enzymic component of anti-oxidant protection was also assessed on the basis of the activity of catalase and superoxidedismutase (SOD).
# 5 ml of […] of HCIO4 solution were added to the sample (100 mg). In order to ensure complete sedimentation of the acid-insoluble fraction, the beakers were put in ice for 15 minutes. Then they were centrifuged for 10 minutes at 5000 revolutions per minute. The sediment was washed twice with 0.2 M HCIO4. After the final centrifugation, the walls of the beaker were carefully dried with gauze and filter paper. The sediment was ground down with a glass pestle, suspended in 1 ml of water and then 1 ml of 0.6 M KON solution was added at room temperature. Hydrolysis was performed over the course of 1 hour at 37° C., then the beakers were put in ice to stop the hydrolysis process. 4 ml of the 0.6 M solution were added to each beaker and the beakers were left in ice for another 15 minutes, then centrifuged for 15 minutes at 5000 revolutions per minute. The supernatant was used to determine the RNA by UV absorption at 260 nm and 290 nm compared to the control sample containing 0.4M of HCIO4). The amount of RNA in μg per 1 ml of the supernatant was calculated using the following formula: [formula] where C=is the RNA concentration (μg/ml)
# DNA analysis was carried out on the sediment remaining after the alkaline hydrolysis used to determine RNA. 0.5 M of HCIO4 (5 ml per sample) was poured into the dried beaker containing the sediment. Hydrolysis was performed in a boiling water bath for 20 minutes. The amount of DNA in μg per 1 ml of the hydrolysate was calculated using the following formula: [formula] where C=is the DNA concentration (μg/ml). Catalase Activity
# Catalase activity was determined using the permanganate method. The optimal amount of the substrate (3 ml of 1% H2O2) and 1 ml of the enzyme were added to 10 ml of phosphate buffer, pH 7.8. After 10 minutes the reaction was stopped by adding 1.5 ml of H2SO4 (50%). The remaining hydrogen peroxide was filtered with 0.1M of KMnO4 solution. Catalase activity was calculated on the basis that 1 ml of 0.1M of KMnO4 solution corresponds to […] of H2O2.
# SOD activity was determined using the dianisidine method, which is based on the fact that under ultraviolet irradiation Riboflavin (Rb) is converted to an excited (ionised) state and therefore becomes able to attack reduced dianisidine (DH2). […]
# in vivo = settings: male, mouse, ip
# Description: (§3) The acute toxicity of 1,3-dialkyl-4,5-bis (N-methylcarbamoyl)imidazolium salts was assessed following intraperitoneal injection into 200 white male mice weighing 18 to 20 g. Dead animals were counted daily after the administration of the test substance.
# [9] = test system: liver after partial hepatectomy; assay: Morphological study of the liver after partial hepatectomy; assay type: in vivo, rats
# Description: Morphological methods are highly informative in the assessment of repair processes. Histological tests of the liver after partial hepatectomy were performed using generally accepted methods. Microscopic sections were stained with hematoxylin and eosin using Van Gieson's methodology. Liver tests after partial hepatectomy were performed on 8 groups of animals, totalling 37 rats. All animals were examined one week after hepatectomy.
# [10] = test system: cryogenic injuries of the sigmoid colon; assay: Cryogenic damage of the colon, model of ulcerative colitis; assay type: in vivo, rats; settings: oral
# Description: A model of cryogenic damage of the colon was used in this experiment to simulate ulcerative colitis. Cryogenic injuries of the sigmoid colon of rats were induced by pressing a metal rod of […] in diameter cooled in liquid nitrogen to the serous membrane of the colon for 10 seconds under ether anaesthesia.
# Tests were performed on 67 male rats weighing 180-200 g, with 8 animals in each group. Animals were kept in separate cages, with normal food and water ad libitum. The test compounds were administered orally on the second day after the operation, and then daily until healing was complete. Compound 2 or Compound 6 was administered to test animals at a dose of 20-50 mg/kg. The following agents were used for comparison:
# The nature of the healing of the ulcer injury was examined morphologically on days 1, 3 and 7. […] The inflammatory process extends beyond the injured area into the adjacent areas, and beyond the peritoneum into fatty connective tissue.
# [11] = Adrenalectomized animals, 48 mg/kg orally 4 days + carrageenin
# [12] = 10 mg/kg intra-peritoneally one hour before Con A
# [13] = 50 mg/kg intra-peritoneally one hour before Con A
# [14] = Healing effect over the course of 3 days
# [15] = Protective effect, 30 minutes before the test
# Description for white male mice: as §3
compound,measurement,setting,value
CCCCC1C(=O)N(c2ccccc2)N(c2ccccc2)C1=O [Butadione],Granuloma weight (mg) Dry weight,experimental granuloma; 60 mg/kg,145.4 ± 7.45 mg
same,Granuloma weight (mg) Exudative stage,experimental granuloma; 60 mg/kg,682.6 mg
same,Granuloma weight (mg) Fresh weight,experimental granuloma; 60 mg/kg,828.0 ± 76.68 mg
same,Granuloma weight (mg) Proliferative stages,experimental granuloma; 60 mg/kg,105.4 mg
same,ED50 values from the literature,[1],60 mg/kg
"CC(C)Cc1ccc(C(C)C(=O)O)cc1 (stereo not drawn) [Ibuprofen, ibuprofen]",Granuloma weight (mg) Dry weight,experimental granuloma; 48 mg/kg,143.2 ± 9.83 mg
same,Granuloma weight (mg) Exudative stage,experimental granuloma; 48 mg/kg,670.8 mg
same,Granuloma weight (mg) Fresh weight,experimental granuloma; 48 mg/kg,814.0 ± 63.72 mg
same,Granuloma weight (mg) Proliferative stages,experimental granuloma; 48 mg/kg,103.2 mg
same,Inhibition of oedema(%),[2]; 48 mg/kg 4 days + carrageenin,63.39%
same,Reaction index (%),[2]; 48 mg/kg 4 days + carrageenin,15.88 ± 1.88 %
same,Inhibition of oedema(%),[2]; [11],57.90%
same,Reaction index (%),[2]; [11],18.12 ± 1.82 %
same,ED50 values from the literature,[1],48 mg/kg
"1,3-diethyl-4,5-bis(N-methylcarbamoyl)-imidazolium benzenesulfonate [Compound 3]",Reaction index (%),[3]; [12],9.5 ± 2.5 %
same,Reaction index (%),[3]; [13],9.5 ± 2.0 %
same,% reduction of degree of ulceration,[4],41%
same,% reduction of ulcerated area,[4],41%
same,Area of lesion,[4],7.2 ± 2.0
same,Average number of lesions per animal,[4]; 20 mg/kg intraperitoneally,6.8 ± 1.4
same,LD50,white male mice,over 500 mg/kg
same,toxicity,white male mice,very low toxicity
same,LD50,"white male mice; intraperitoneal injection, white male mice, 14 days observation",1292 mg/kg
same,% reduction of degree of ulceration,[5],59%
same,Average number of lesions per animal,[5],7.7 ± 2.5
same,% reduction of degree of ulceration,[6]; [14],26.5%
same,Average number of lesions per animal,[6]; [14],2.5 ± 0.4
same,% reduction of degree of ulceration,[6]; [15],50%
same,% reduction of ulcerated area,[6]; [15],54%
same,Area of lesion,[6]; [15],7.1 ± 4.1
same,Average number of lesions per animal,"[6]; Protective effect, 30 minutes before the test, 20 mg/kg intraperitoneally",3.5 ± 0.4
same,effect on gastric secretory function,[7],did not affect gastric secretory function
"CC[n+]1cn(C)c(C(=O)NC)c1C(=O)NC [Compound 4, 1-methyl-3-ethyl-4,5-bis(N-methylcarbamoyl)-imidazolium chloride]",Catalase E activity,[8],18.0 ± 2.6 μgM/min/g tissue × 1000
same,DNA content (in mg/g of tissue),[8],3.72 ± 0.09 mg/g of tissue
same,Protein content,[8],85.5 ± 10.6 Mg/g tissue
same,RNA content (mg/g of tissue),[8],7.14 ± 0.2 mg/g of tissue
same,SOD activity,[8],90.0 ± 3.3 Units/g tissue
same,Level of recovery,[8],128.3
same,Reaction index (%),[3]; [12],14.1 ± 2.0%
same,Reaction index (%),[3]; [13],12.4 ± 0.4 %
same,LD50 at 14 days,in vivo,1220 mg/kg
same,toxicity,white male mice,very low toxicity
same,histological findings in the liver,"[9]; rat, in vivo",showed no undesirable effects
"1-methyl-3-ethyl-4,5-bis(N-methylcarbamoyl)-imidazolium salicylate [Compound 6]",Catalase E activity,[8],20.0 ± 2.7 μgM/min/g tissue × 1000
same,DNA content (in mg/g of tissue),[8],3.88 ± 0.17 mg/g of tissue
same,Protein content,[8],93.0 ± 14.0 Mg/g tissue
same,RNA content (mg/g of tissue),[8],7.41 ± 0.16 mg/g of tissue
same,SOD activity,[8],100.0 ± 4.7 Units/g tissue
same,Level of recovery,[8],105.0
same,histological findings in the liver,"[9]; 0.2 MM/kg, one week after hepatectomy",showed no undesirable effects
same,indicators of healing relative to Compound 2,[10],less pronounced

# Reference: patent US20060135587A1, “Method and compounds for promoting healing and reducing inflammation” (priority 2002, published 2006)
